The values that follow come from PubChem BioAssay AID1996.

The kinetic solubility is solubility judged after dilution from a stock solution rather than from solid.

Values after ≈ are worked out from the molar mass of the structure shown.

For the data set the following is noted: buffer; pH 7.4; 200.0 µM.
The molecule `COc1ccc(NC(=O)/C=C/c2cccc(Br)c2)cn1` gave a solubility (kinetic) of 3.8 µg/mL (≈ 11.4 µM). Then `CCn1c(=S)[nH]c2cc(S(=O)(=O)N3CCOCC3)ccc21`, with 34.2 µg/mL (≈ 104 µM); and `O=CNCc1nc2ccccc2n1CCc1ccccc1`, with > 41.9 µg/mL; and `Cc1ccc2c(c1)N=C(c1ccccc1)CC(C(Cl)Cl)=N2`, with 7.1 µg/mL (≈ 22.4 µM). In the case of `COc1ccc(CCNC(=O)C(C)SCC(=O)Nc2ccc(F)cc2)cc1` (stereo not given), the solubility (kinetic) was > 58.6 µg/mL. Then `COc1ccc(OC)c(CNC(=O)c2coc(=O)c3ccccc23)c1`, with > 50.9 µg/mL; and `CCOC(=O)CNC(=O)CN1CCC(c2nc3ccccc3[nH]2)CC1`, with > 51.7 µg/mL; and `O=C(COC(=O)/C=C/c1ccc(F)cc1)NC1CC1`, with 28.8 µg/mL (≈ 109 µM). Under `Cc1cccc(-c2noc(CCC(=O)Nc3ccc(C(N)=O)cc3)n2)c1` stands 0.5 µg/mL (≈ 1.43 µM); under `CCOC(=O)c1cc(NCc2cccs2)ccc1N1CCOCC1`, 50.4 µg/mL (≈ 145 µM); under `CC(C)(C)NC(=O)N1CCN(c2nc3ccc(Cl)cc3s2)CC1`, 1.7 µg/mL (≈ 4.82 µM).

For the molecule `CS(=O)(=O)N1CCc2cc(C(=O)Nc3cccc([N+](=O)[O-])c3)ccc21`, the kinetic solubility was < 0.3 µg/mL. Under `Cc1onc(-c2ccccc2Cl)c1C(=O)N1CCC(C(N)=O)CC1` stands 50.7 µg/mL (≈ 146 µM); under `CCOc1cc(C(=O)NC2CC(C)(C)NC(C)(C)C2)cc(OCC)c1OCC`, > 58.9 µg/mL. `COc1ccc(NS(=O)(=O)c2cn(C)c(=O)n(C)c2=O)c(OC)c1`: the kinetic solubility was > 53.3 µg/mL.

On to `Cc1csc(NC(=O)Cn2nc(C)c([N+](=O)[O-])c2C)n1`, for which the kinetic solubility was > 44.3 µg/mL. Then `Cc1nc(NC(=O)CSc2nnc(C3CC3)n2N)c(Cl)cc1Cl`, with > 56 µg/mL; and `Cc1ccc(C)c(S(=O)(=O)/N=C(/Nc2ccccc2)c2ccccc2)c1`, with 17.2 µg/mL (≈ 47.2 µM). For `O=S(=O)(Nc1ccccc1Cl)c1ccc(-c2ccccn2)s1`, the solubility (kinetic) turned out to be 35.8 µg/mL (≈ 102 µM). Under `COc1cccc(CC(=O)NC2CCSc3ccccc32)c1` (stereo not given) stands 20.9 µg/mL (≈ 66.7 µM); under `Cn1cccc1C(=O)Nc1ccc(N2CCOCC2)cc1`, > 42.8 µg/mL. Under `COc1ccc(Cl)cc1NC(=O)CN(C)C(=O)C1CC1` stands > 44.5 µg/mL; under `COC(=O)C1CCN(C(=O)/C=C/c2ccc3c(c2)OCO3)CC1`, 34 µg/mL (≈ 107 µM); under `CCOc1ccc(C(=O)NCC(=O)N2CCC(C)CC2)cc1OCC`, > 52.3 µg/mL.

`CC(=O)/C(=C(/O)c1ccccc1)c1nc2ccccc2[nH]1` had a kinetic solubility of 1.4 µg/mL (≈ 5.03 µM). Under `O=C(c1c(F)cccc1F)N1CCC(O)(c2ccc(F)cc2)CC1` stands 49 µg/mL (≈ 146 µM). The molecule `Cc1ccc(-c2nc(-c3cccnc3)sc2CC(=O)O)cc1` had a solubility (kinetic) of 42.4 µg/mL (≈ 137 µM). Then `CCN(CC(=O)Nc1ccc2c(c1)OCCO2)CC(=O)Nc1ccc(C)c([N+](=O)[O-])c1`, with 7 µg/mL (≈ 16.3 µM); and `CC1CCN(CC(O)COc2ccc(C(=O)c3ccccc3)cc2)CC1` (stereo not given), with > 53 µg/mL. Under `Cc1cccc(CNC(=O)C2CCC(=O)N(C3CCCCCC3)C2)c1` (stereo not given) stands > 51.4 µg/mL; under `CCOC(=O)C1=C(O)/C(=C\c2cc(C)n(-c3ccccc3F)c2C)N=C1C`, 32.6 µg/mL (≈ 88.5 µM). Under `Cc1cccc(C(=O)NC2CCCCCCC2)c1` stands 8.9 µg/mL (≈ 36.3 µM). Turning to `CN(C(=O)CN1C(=O)NC2(CCc3ccccc32)C1=O)C1CCCCC1` (stereo not given), the solubility (kinetic) is > 53.3 µg/mL. Under `CCOc1ccc(S(=O)(=O)n2cnc3ccccc32)cc1` stands 42.4 µg/mL (≈ 140 µM). Then `CC1CCN(CC(=O)Nc2nc(-c3ccccc3)cs2)CC1`, with 12.9 µg/mL (≈ 40.9 µM). For the molecule `COC(=O)c1ccc(S(=O)(=O)NCc2ccccc2)n1C`, the kinetic solubility is > 46.3 µg/mL. Under `Cc1ccc2nc(Cl)c(C#N)cc2c1` stands 2.2 µg/mL (≈ 10.9 µM).

Take `O=C(CCCc1ccccc1)Nc1ccccc1[N+](=O)[O-]`: the kinetic solubility is 15.2 µg/mL (≈ 53.5 µM). Under `Cc1ccccc1OCc1ccc(C(=O)N2CC(C)OC(C)C2)o1` (stereo not given) stands 47.8 µg/mL (≈ 145 µM); under `COc1ccc(CNc2ncnc3sccc23)cc1OC`, 20.2 µg/mL (≈ 67 µM).
